Measurements from patent US6869956B2, “Methods of treating inflammatory and immune diseases using inhibitors of IκB kinase (IKK)” (Bristol-Myers Squibb Company, priority 2000, dated 2005).

Assays:
Pharmacokinetics in mice = assay type: in vivo; details: mouse, plasma, BALB/c mice
Protocol: Compound 6 was administered to BALB/c mice either per orally (p.o.) or intravenously (i.v.). Blood was drawn at various times (0.5 to 4 hours) after dosing and the plasma drug levels measured by liquid chromatography-mass spectral analysis.

LPS-induced serum TNFα = LPS-induced serum TNFα in mice; assay type: in vivo, BALB/c mice; details: p.o.
Protocol: As a measure of activity against NF-κB-dependent TNFα production in vivo, test compounds were administered to BALB/c mice subsequently challenged with an intravenous dose of E. coli LPS (1 μg in 100 μL phosphate-buffered saline). One hour after LPS challenge, blood was collected from the mice and the levels of TNFα in the serum measured by EIA(R&D Systems). Inhibition was calculated from control animals which received LPS challenge with no test compound.

[1] = tested on: TNFα production in THP-1 cells; experiment: TNFα production assay in LPS-stimulated THP-1 cells; assay type: cell-based; details: Homo sapiens, 6 hours, ELISA, read-out: IC50 in TNF-α production assay
Protocol: THP-1 (human monocytic cell line) obtained from ATCC was cultured in RPMI-1640 supplemented with 10% FBS, sodium pyruvate, HEPES, 2-mercaptoethanol, Penicillin/Streptomycin. To a 96-well plate containing THP-1 cells (1.4×10^6/mL, 2.5×10^5 cells/well) in 180 μL RPMI-1640 was added 20 μL of the test compound in 10% DMSO. […] After one hour at 37° C., 20 μL of 1000 ng/mL lipopolysaccharide (LPS from Salmonella typhosa, Sigma) was added to each well. After an additional 6 hours at 37° C., the supernatants were collected following a 5 minute centrifugation of the plate to pellet the cells. The amount of TNFα in these supernatants was then measured using a TNFα-specific ELISA (Pharmingen). […] IC50 values were calculated from the percentage inhibition at various doses.

[2] = tested on: ovalbumin-induced inflammatory cell infiltration in the lung; experiment: Ovalbumin-induced inflammatory cell infiltration into the lung of sensitized mice; assay type: in vivo, BALB/c mice; details: for Total Inflammatory Cells in BAL: days 14 to 17, BAL on day 18
Protocol: In the pulmonary inflammation animal model, BALB/c mice were sensitized by an intraperitoneal injection of 0.1 mL alum-precipitated antigen containing 40 μg ovalbumin adsorbed to aluminum hydroxide gel on days 0 and 10. On day 14, animals received intranasal challenge with 100 μg ovalbumin in 50 μl saline (PBS). Mice were injected intraperitoneally with antigen to sensitize the animals prior to intranasal challenge to induce lung inflammation. Administration of the test compound was given on days 14 to 17. On day 18, bronchoalveolar lavage fluid (BAL) was collected for measurements of total inflammatory cell infiltration (eosinophils, monocytes, lymphocytes, and neutrophils).

[3] = tested on: transplanted hearts (graft rejection); experiment: Murine neonatal heart to ear transplants, graft survival; assay type: in vivo, BALB/c mice
Protocol: Cardiac transplants were performed as described by Fulmer et al. (Fulmer, R. I. et al. The American Journal of Anatomy 113:273-281, 1963). Neonatal hearts were obtained from newborn C57BL/6 mice not more than 48 hours after birth. The hearts were transplanted into recipient BALB/c mice, which were prepared under anesthesia by making a small incision at the base of the ear pinna and forming a pocket by gently lifting the skin away from the ear. The incision permitted the insertion of the donor heart subcutaneously into the pocket. […] The pulsations of the heart were measured by contractile activity with an appropriate electrocardiogram (ECG) monitoring device. The contractile activity of the transplanted graft was monitored daily. The time of graft rejection was defined as the day after transplantation on which contractile activity ceased. Without therapeutic intervention, the host mounts an immune response to the transplanted heart (i.e., graft rejection). This immune response causes the transplanted heart to cease beating typically 10-14 days post transplantation.
Test compounds were administered in daily doses either alone or in combination with other therapies, such as Cyclosporine A (15 mg/kg, orally, “p.o.”) or CTLA4-Ig (200 μg in 200 μl PBS given intraperitoneally on only days 0, 2, and 4). Table 2 presents the effects of test compounds on median survival time of transplanted hearts, either alone or in combination with Cyclosporine A (CsA). Table 3 presents the effects of test compounds on median survival time of transplanted hearts, either alone or in combination with CTLA4-Ig.

[4] = tested on: collagen-induced arthritis; experiment: Murine model of collagen-induced arthritis; assay type: in vivo, DBA/1 LacJ male mice; design: Cumulative arthritis injury score (±sem): scale not given here
Protocol: DBA/1 LacJ male mice 6-8 wk (Jackson Laboratories; Bar Harbor, Me.) were immunized subcutaneously on day 0 and on day 21 with 100 μg bovine type 11 collagen in 0.1 mL RIBI Adjuvant System (RAS) with monophosphoryl lipid A(RIBI lmmunoChem Research; Hamilton, Mont.). In this model, disease onset occurs within one week after the second collagen injection.
When treated in a preventative mode, test compounds were administered daily beginning on day 0 through day 41.
In the established (i.e. therapeutic) mode, the administration of test compounds was initiated only after paw inflammation of an animal had achieved a score of 2 (as defined below), at which time, the animal was randomly assigned to a treatment group. Treatment continued daily for all four paws as described below.
Following the Day 21 booster, mice were regularly monitored for the development and severity of paw inflammation.
Clinical paw scores for all four paws were summed for each mouse and the mean ± standard deviation (SD) was calculated for each treatment group.
Histological scoring involved evaluating histologically and grading semi-quantitatively tibiotarsal joints of sacrificed mice, specifically examining the severity of inflammation, synovial hyperplasia, bone resorption, and cartilage erosion. Cumulative arthritis injury scores for each group were compared by the nonparametric Kruskal-Wallis analysis of variance.

DSS-induced colitis = experiment: Dextran sulfate sodium-induced murine model of inflammatory bowel disease; assay type: in vivo, Swiss-Webster mice; details: for Mean clinical score: colon, scale 0-3
Protocol: In this model, Swiss-Webster mice (8 weeks old, 5 animals per treatment group) were given 6% DSS in their drinking water for 7 consecutive days to induce intestinal inflammation. Test compounds were administered daily throughout the study. On day 9, animals were sacrificed and the colons were removed for clinical and histological evaluation.
Clinical scoring was determined by the gross clinical evaluation of the injury on a scale from 0 (normal) to 3 (severe) as detailed in Table 7.
For histological scoring, colon sections were graded as to the severity of crypt injury and the degree of inflammation. The crypt injury was scored as detailed in Table 8, wherein the crypt is part of the glandular make-up of the colon.
Tissue involvement was scored as detailed in Table 9. Any signs of crypt injury or inflammation, regardless of severity, constitute tissue involvement.
The injury histological score is defined as the product of the crypt injury grade and the tissue involvement grade. The scoring of severity of inflammation is detailed in Table 10.
The inflammation histological score is the product of the severity of inflammation grade and the extent of tissue involvement grade. Crypt injury and inflammatory scoring were performed on each colon section and a mean score and standard error were determined for each section. Cumulative crypt injury and inflammatory scores for each group were determined. The results of Table 12 present the cumulative injury and inflammation scores of colons in mice with DSS-induced colitis.

Cc1ccc2nc(NCCN)c3ncc(C)n3c2c1 [Compound 6, 4(2′-aminoethyl)amino-1,8-dimethylimidazo(1,2-a)quinoxaline]
half-life (Pharmacokinetics in mice; iv, apparent terminal elimination phase after i.v. dose): 7.9 h | bioavailability (Pharmacokinetics in mice; oral, AUC p.o. divided by AUC i.v.): 100% | inhibition of the LPS-induced serum TNFα levels in vivo (LPS-induced serum TNFα; 10 mg/kg): 27-63% | inhibition of the LPS-induced serum TNFα levels in vivo (LPS-induced serum TNFα; 30 mg/kg): 53-89% | inhibition of the LPS-induced serum TNFα levels in vivo (LPS-induced serum TNFα; 50 mg/kg): 83-92% | IC50 [1]: 4 µM | Total Inflammatory Cells in BAL ([2]; 30 mg/kg p.o.): 2.8 × 10^6 ± 1.3 × 10^6 | Total Inflammatory Cells in BAL ([2]; 100 mg/kg p.o.): 2.2 × 10^6 ± 0.3 × 10^6 | total inflammatory cells in the lungs vs untreated mice ([2]; administration after ovalbumin challenge): statistically significant decrease in total inflammatory cells in the lungs | Median Graft Survival Time ([3]; CTLA4-Ig (200 μg i.p. days 0, 2, 4) plus Compound 6 50 mg/kg p.o.): 32 days | Median Graft Survival Time ([3]; CTLA4-Ig (200 μg i.p. days 0, 2, 4) plus Compound 6 100 mg/kg p.o.): >60 days | Median Graft Survival Time ([3]; Compound 6 50 mg/kg p.o. alone): 12 days | Median Graft Survival Time ([3]; Cyclosporine A 15 mg/kg p.o. plus Compound 6 50 mg/kg p.o.): 29 days | effect of combination with cyclosporine A or CTLA4-Ig on graft survival ([3]; co-administered with cyclosporine A or CTLA4-Ig): synergistic effects | Cumulative arthritis injury score (±sem) ([4]; established mode, 10 mg/kg, two weeks after disease onset): 4.2 ± 1.0 | disease progression ([4]; established mode, 30 mg/kg p.o., vs vehicle): significantly inhibited disease progression | Cumulative arthritis injury score (±sem) ([4]; established mode, 30 mg/kg, two weeks after disease onset): 2.1 ± 0.9 | disease progression ([4]; established mode, 100 mg/kg p.o.): significant disease resolution | Cumulative arthritis injury score (±sem) ([4]; established mode, 100 mg/kg, two weeks after disease onset): 0.9 ± 0.5 | Cumulative arthritis injury score (±sem) ([4]; preventative mode, 10 mg/kg): 5.3 ± 1.7 | Cumulative arthritis injury score (±sem) ([4]; preventative mode, 30 mg/kg): 0.4 ± 0.4 | disease onset ([4]; preventative mode, 30 mg/kg p.o. daily): inhibited disease onset | Cumulative arthritis injury score (±sem) ([4]; preventative mode, 30 mg/kg, listed as compound 6, 30 mg/kg): 0.4 | Cumulative arthritis injury score (±sem) ([4]; preventative mode, 100 mg/kg): 0.0 | incidence of disease (FIG. 1) ([4]; preventative mode, 100 mg/kg daily, vs vehicle): significant difference in incidence of disease | disease onset ([4]; preventative mode, 100 mg/kg p.o. daily): prevented any disease onset | Cumulative arthritis injury score (±sem) ([4]; preventative mode, 100 mg/kg, listed as compound 6, 100 mg/kg): 0 | Group Mean Inflammation Histological Score (DSS-induced colitis; 30 mg/kg p.o. daily): 7.58 ± 0.81 | Group Mean Injury Histological Score (DSS-induced colitis; 30 mg/kg p.o. daily): 4.83 ± 0.55 | Mean clinical score (DSS-induced colitis; 30 mg/kg p.o. daily): 1.10 ± 0.49 | Group Mean Inflammation Histological Score (DSS-induced colitis; 100 mg/kg p.o. daily): 6.82 ± 0.85 | Group Mean Injury Histological Score (DSS-induced colitis; 100 mg/kg p.o. daily): 5.66 ± 0.87 | Mean clinical score (DSS-induced colitis; 100 mg/kg p.o. daily): 1.00 ± 0.35 | clinical and histological score vs untreated mice (DSS-induced colitis; daily administration): statistically significant decrease in clinical and histological score
